# According to patent US7622289B2, “Ornithine aminotransferase (OAT): a target for anticancer drugs” (Board of Regents, The University of Texas System, priority 2006, dated 2009):
# Residues, ends and D or L forms follow the SMILES beside them. *: point of attachment. Cbz = O=C(OCc1ccccc1)*; CH2F = FC*
# Tests used:
# [1] = target: T1, OAT enzymatic activity (Mus musculus, UniProt P29758); test: Ornithine aminotransferase activity in crude mitochondrial extracts from mouse liver; type: biochemical; conditions: increasing concentrations
# T1 construct: Crude mitochondrial extracts from mouse liver were assayed for ornithine aminotransferase activity; from tissue; host or cells: mouse liver, crude mitochondrial extract
# T1 sequence (P29758 26-439): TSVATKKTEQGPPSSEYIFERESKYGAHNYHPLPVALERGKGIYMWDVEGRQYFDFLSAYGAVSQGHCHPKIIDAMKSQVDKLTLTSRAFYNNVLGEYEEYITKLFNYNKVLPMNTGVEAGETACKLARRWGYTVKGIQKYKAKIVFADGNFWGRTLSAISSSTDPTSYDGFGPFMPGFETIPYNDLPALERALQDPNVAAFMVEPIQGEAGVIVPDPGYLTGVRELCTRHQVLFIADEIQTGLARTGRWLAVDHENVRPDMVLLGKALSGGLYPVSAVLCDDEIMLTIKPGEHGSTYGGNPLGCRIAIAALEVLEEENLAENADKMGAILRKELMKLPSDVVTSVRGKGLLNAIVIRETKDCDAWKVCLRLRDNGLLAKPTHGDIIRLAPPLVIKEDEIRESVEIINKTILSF
# Experimental: To determine if diazonamide binds to OAT directly, recombinant His-tagged hOAT was produced in bacteria, purified, and incubated with compound 3-coated avidin agarose. […] We next examined the impact of diazonamide binding on OAT enzymatic activity. Crude mitochondrial extracts from mouse liver were assayed for ornithine aminotransferase activity in the presence of increasing concentrations of compounds 2 or 3.
# [2] = system: HeLa cell; test: HeLa cell growth inhibition; type: cell-based, human
# Experimental: Biotin conjugate 3 (Table 1) was prepared to facilitate isolation of diazonamide binding proteins using avidin-based affinity chromatography. […] As a negative control, seco analog 5 was synthesized:
# This molecule is identical to 3 except it lacks the biaryl linkage connecting carbons 16 and 18 (Table 1).
# [3] = system: HeLa cells; test: Mitotic arrest and spindle phenotype in HeLa cells; type: cell-based, human; conditions: 30 nM, eighteen hours following dosage
# From the text: Suitable spindle assembly systems include Xenopus egg extracts, Hela cells, COS-7 cells, CHO cells, U20S cells, etc. An agent-biased spindle assembly is a spindle-assembly that has a phenotype that differs from that of the first spindle assembly (i.e. the normal control). […] The spindle phenotypes are typically visualized by fixing the cells or cell extracts and differentially staining the α-tubulin and DNA [5]. Spindle assembly can also be visualized by live cell imaging.
# Biotin conjugate 3 (Table 1) was prepared to facilitate isolation of diazonamide binding proteins using avidin-based affinity chromatography. […] As a negative control, seco analog 5 was synthesized: […]
# [4] = system: wild-type human fibroblasts; test: Mitotic arrest (cell rounding) in wild-type human fibroblasts; type: cell-based; conditions: 10 nM for 30 hrs
# Experimental: (§1) The OAT locus has been examined in fibroblasts derived from GA patients wherein various point and nonsense mutations have been characterized (20). Such cell lines offered another means to solidify the connection between OAT, diazonamide, and its anti-mitotic properties. When wild-type human fibroblasts were exposed to 10 nM diazonamide A for 30 hrs, >60% of cells rounded up—indicative in this case of mitotic arrest. […] Among the mutant cell lines examined only R154L and R180T variants express OAT protein.
# [5] = system: cultured human cancer cell; conditions: cited from earlier work
# [6] = system: fibroblast lines derived from gyrate atrophy patients harboring OAT mutations; test: Mitotic arrest (cell rounding) in gyrate atrophy patient fibroblasts; type: cell-based, human; conditions: OAT mutations: initiator methionine, R154L, R180T, W391 nonsense
# Experimental: as §1
# [7] = system: BS-C-1 and PTK2 culture; test: Interphase microtubules in BS-C-1 and PTK2 culture; type: cell-based; conditions: at GI50 concentrations
# Experimental: COMPARE pattern analysis of observed cytotoxic/cytostatic activities implied a mechanistic correlation between diazonamide and microtubule de-polymerizing agents such as maytansine and vinblastine. […] To test this possibility, a synthetic variant of diazonamide A (2, Table 1) was prepared.
# [8] = system: tubulin; conditions: cited from earlier work
# [9] = system: endogenous OAT in HeLa cells; test: OAT siRNA knock-down in HeLa cells; type: cell-based, human; conditions: added to OAT siRNA-treated HeLa cells
# From the text: OAT is well characterized as a mitochondrial matrix enzyme. In this context it regulates flux through the urea cycle and couples, indirectly, proline biosynthesis to the availability of fumarate for consumption in the TCA cycle (19). For reasons not completely understood, mutations in the human enzyme are associated with a progressive degeneration of the retina and choroid termed gyrate atrophy (20).
structure (smiles),measurement,setting,value
C#CC(N)CCC(=O)O (centres unmarked) [4-aminohex-5-ynoic acid],inhibition of conversion of L-ornithine to L-Δ1-pyrroline-5-carboxylic acid,[1],suppressed the activity in a dose dependent manner
"CC(C)[C@H](O)C(=O)N[C@H]1Cc2ccc3c(c2)[C@]24C5=C(N=C(O5)[C@H](C(C)C)NC1=O)c1nc(Cl)c(o1)-c1c(Cl)[nH]c5cccc(c15)-c1cccc2c1N[C@@H]4O3 [Compound 1, (-)-diazonamide A]",GI50,[2],5 nM
same,spindle phenotype,[3],multi-pole spindle phenotype with misaligned chromosomes
same,cells rounded up (mitotic arrest),[4],> 60%
same,concentration inhibiting cultured human cancer cell growth,[5],low nanomolar concentrations
same,response of gyrate atrophy fibroblast lines,[6],resistant to the compound
same,impact on interphase microtubules,[7],little impact on interphase microtubules
same,competition with vinca alkaloids or nocadazole for tubulin binding,[8],did not compete
same,purified tubulin polymerization in vitro,[8],inhibit purified tubulin polymerization in vitro
N=C(N)NCCC[C@H](N)C(=O)O [L-arginine],blocking of cell death in OAT siRNA-treated cells,[9],failed to attenuate the rate of death or restore normal spindle assembly
CC(NC(=O)C(NC(=O)OCc1ccccc1)C(C)C)C(=O)NC(CC(=O)O)C(=O)CF (stereo not drawn) [Z-VAD] (Cbz-Val-Ala-Asp-CH2F; configuration not given here),blocking of cell death in OAT siRNA-treated cells,[9],not blocked
